Some test systems named below: A549 NSCLC; SF-268 CNS; NCI-H226 lung; COLO 205 colon; OVCAR-5 ovarian; MDA-MB-435; MDA-MB-231 breast; SNB-19 CNS; NCI-H460 lung; BT-549 breast.
What all share (test): growth of human tumour cells (NCI), 48 h

The values below come from PubChem BioAssay (NCI).

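A five-concentration, 48-hour dose response in 96-well plates underlies each endpoint, interpolated linearly between surrounding concentrations. GI50: concentration for 50% inhibition of growth. TGI: concentration producing complete growth inhibition.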

Take `O=C(Cc1ccc(/C=C/C(=O)c2ncc[nH]2)cc1)Nc1ccc(Cl)cc1`: the GI50 with A549 NSCLC was 6.9 µM; in the assay on SF-268 CNS it was 1.65 µM; in the assay with NCI-H226 lung, 7.5 µM; in the assay on COLO 205 colon it was 3010 nM; in the assay with OVCAR-5 ovarian, 3.3 µM; with MDA-MB-435, 4.14 µM. The GI50 in the assay on MDA-MB-231 breast was 4.27 µM; in the assay with SNB-19 CNS, 2320 nM; in the assay with NCI-H460 lung, 3.43 µM; in the assay on BT-549 breast, 3.46 µM. Also, the TGI is over 25 µM in the assay with A549 NSCLC; over 25 µM with SF-268 CNS; over 25 µM with NCI-H226 lung; 7.42 µM in the assay on COLO 205 colon; 7.78 µM in the assay with OVCAR-5 ovarian; over 25 µM in the assay with MDA-MB-435. For the same compound, the TGI in the assay on MDA-MB-231 breast was 14.9 µM; with SNB-19 CNS it was 6.73 µM; in the assay with NCI-H460 lung, over 25 µM; in the assay on BT-549 breast, 11.2 µM.
Consider `NS(=O)(=O)c1ccc(-n2nc(-c3ccc(Br)cc3)ccc2=O)cc1`, for which the GI50 in the assay on A549 NSCLC is over 10 µM; in the assay with SF-268 CNS it was over 10 µM; in the assay on NCI-H226 lung, over 10 µM; in the assay with COLO 205 colon, over 10000 nM; with OVCAR-5 ovarian it was over 10 µM; in the assay with MDA-MB-435, 3.72 µM. For the same compound, the GI50 with MDA-MB-231 breast was over 10 µM; with SNB-19 CNS, over 10000 nM; with NCI-H460 lung it was over 10 µM; with BT-549 breast, over 10 µM. Further, the TGI with A549 NSCLC, with SF-268 CNS, with NCI-H226 lung, in the assay on COLO 205 colon, in the assay on OVCAR-5 ovarian and in the assay on MDA-MB-435 was over 10 µM each time. For the same compound, the TGI with MDA-MB-231 breast, in the assay with SNB-19 CNS, in the assay on NCI-H460 lung and in the assay on BT-549 breast was over 10 µM each time.
For `CCOC(=O)c1cc(-c2ccc([N+](=O)[O-])cc2)n(-c2ccc(C(=O)O)c(O)c2)c1C`, the GI50 in the assay with A549 NSCLC is 3.38 µM; with SF-268 CNS it was 4.69 µM; in the assay with NCI-H226 lung, 11.2 µM; in the assay with COLO 205 colon, 1600 nM; in the assay with OVCAR-5 ovarian, 17.3 µM; in the assay on MDA-MB-435, 3.62 µM. Also, the GI50 in the assay with MDA-MB-231 breast was 10.3 µM; in the assay on SNB-19 CNS, 5660 nM; with NCI-H460 lung, 4.16 µM; with BT-549 breast, 3.83 µM. Further, the TGI was 12.7 µM in the assay on A549 NSCLC; 19.6 µM with SF-268 CNS; 33.9 µM in the assay on NCI-H226 lung; 3.84 µM with COLO 205 colon; 35.3 µM in the assay on OVCAR-5 ovarian; 14.6 µM with MDA-MB-435. The TGI came out at 29.9 µM in the assay on MDA-MB-231 breast, 19.1 µM in the assay on SNB-19 CNS, 17 µM in the assay on NCI-H460 lung and 18.1 µM in the assay with BT-549 breast.
Turning to `OC(c1cccc(C(F)(F)F)c1)c1cnccc1NC1CCCCCC1` (stereo not given), the GI50 in the assay with A549 NSCLC is 3.58 µM; in the assay on SF-268 CNS, 3.29 µM; with NCI-H226 lung it was 2.76 µM; in the assay with COLO 205 colon it was 1730 nM; in the assay on OVCAR-5 ovarian it was 1.7 µM; with MDA-MB-435, 1.66 µM. In addition, the GI50 was 1.64 µM in the assay with MDA-MB-231 breast, 1830 nM in the assay on SNB-19 CNS, 1.84 µM with NCI-H460 lung and 2.13 µM in the assay on BT-549 breast. The TGI in the assay on A549 NSCLC was 11.4 µM; in the assay on SF-268 CNS it was 13.8 µM; in the assay with NCI-H226 lung, 16.6 µM; with COLO 205 colon it was 3.37 µM; in the assay on OVCAR-5 ovarian it was 3.76 µM; with MDA-MB-435, 3.13 µM. Further, the TGI in the assay with MDA-MB-231 breast stood at 3.22 µM; with SNB-19 CNS it was 4.08 µM; with NCI-H460 lung, 3.57 µM; in the assay on BT-549 breast, 5.47 µM.
Take `CN(C)c1ccc(/C=C2\C[N+](C)(C)C/C(=C\c3ccc(N(C)C)cc3)C2=O)cc1`: the TGI in the assay on A549 NSCLC is over 100 µM; in the assay with SF-268 CNS it was 66.2 µM; in the assay on NCI-H226 lung, 90.8 µM; with COLO 205 colon, 8.36 µM; in the assay with OVCAR-5 ovarian it was 96.5 µM; in the assay on MDA-MB-435 it was 30 µM. For the same compound, the TGI was 36.7 µM in the assay on MDA-MB-231 breast, 45.4 µM in the assay on SNB-19 CNS, over 59 µM in the assay with NCI-H460 lung and 34.3 µM with BT-549 breast.
Consider `CN(C)c1ccc2c(c1)oc(=O)c1ccccc12`, for which the TGI in the assay on A549 NSCLC worked out at 34.6 µM; in the assay with SF-268 CNS it was 22.7 µM; in the assay on NCI-H226 lung, 31.9 µM; in the assay on COLO 205 colon, 24.7 µM; with OVCAR-5 ovarian, 30.2 µM; with MDA-MB-435, 23.1 µM. For the same compound, the TGI with MDA-MB-231 breast was found to be 34.4 µM; in the assay with SNB-19 CNS it was 28.3 µM; in the assay with NCI-H460 lung, 58 µM; in the assay with BT-549 breast, 17.1 µM.
For the compound `COc1cc2c(c(OC)c1OC)-c1ccc(NCc3ccccc3)c(=O)cc1[C@@H](NC(C)=O)CC2`, the GI50 in the assay with A549 NSCLC was 0.453 µM; in the assay with SF-268 CNS, 0.788 µM; in the assay with NCI-H226 lung it was 1.01 µM; in the assay on COLO 205 colon it was 277 nM; with OVCAR-5 ovarian it was 0.723 µM; in the assay on MDA-MB-435 it was 0.187 µM. Also, the GI50 with MDA-MB-231 breast was 0.461 µM; in the assay with SNB-19 CNS it was 638 nM; with NCI-H460 lung it was 0.369 µM; with BT-549 breast, 1.41 µM. The TGI with A549 NSCLC was over 100 µM; in the assay with SF-268 CNS, over 73.5 µM; with NCI-H226 lung, 17.1 µM; in the assay with COLO 205 colon it was 0.638 µM; in the assay with OVCAR-5 ovarian it was over 100 µM; with MDA-MB-435, 0.486 µM. The TGI in the assay with MDA-MB-231 breast was 11.7 µM; in the assay on SNB-19 CNS, over 100 µM; in the assay on NCI-H460 lung, 18 µM; with BT-549 breast, 26.1 µM.
